Results from patent US11266604B2 (ALAYA (SHANGHAI) BIOSCIENCE CO., LTD, priority 2015, dated 2022).
“Also recorded” adds a separate entry of the source.

Key:
Propionibacterium acnes = assay: Antibacterial activity of nanoparticles versus free fatty acid in aqueous system (PBS); type: cell-based
Source text: (§1) The present inventors further tested the antibacterial activity of the nanoparticles of the present invention and free fatty acids in an aqueous system.

H. pylori = assay: as above; type: cell-based, Helicobacter pylori; conditions: same concentration (0.3% w/v)
Source text: as §1

Question: Which “bactericidal effect on Propionibacterium acnes in aqueous system” value (Propionibacterium acnes) does the source give for `CCCCCCCCCCCC(=O)O` [free lauric acid, lauric acid] here?
Answer: The value was “almost no bactericidal effect”.

Question: With `CCCC/C=C\CCCCCCCC(=O)O` [free myristoleic acid, myristoleic acid] as the compound, how does the “bactericidal activity against H. pylori in aqueous system” value (H. pylori) read?
Answer: Its value is “does not exhibit activities against H. pylori; also recorded: did not show bactericidal activity”.
